What was measured:
[1] = molecular target: T1, Vitamin D3 receptor (Homo sapiens) (UniProt P11473); assay: Effect on Gal4 DBD-hVDRdelta LBD construct transactivation in COS7 cells at 10(-7) M; format: functional, cell-based; conditions: COS-7
T1 sequence (whole entry): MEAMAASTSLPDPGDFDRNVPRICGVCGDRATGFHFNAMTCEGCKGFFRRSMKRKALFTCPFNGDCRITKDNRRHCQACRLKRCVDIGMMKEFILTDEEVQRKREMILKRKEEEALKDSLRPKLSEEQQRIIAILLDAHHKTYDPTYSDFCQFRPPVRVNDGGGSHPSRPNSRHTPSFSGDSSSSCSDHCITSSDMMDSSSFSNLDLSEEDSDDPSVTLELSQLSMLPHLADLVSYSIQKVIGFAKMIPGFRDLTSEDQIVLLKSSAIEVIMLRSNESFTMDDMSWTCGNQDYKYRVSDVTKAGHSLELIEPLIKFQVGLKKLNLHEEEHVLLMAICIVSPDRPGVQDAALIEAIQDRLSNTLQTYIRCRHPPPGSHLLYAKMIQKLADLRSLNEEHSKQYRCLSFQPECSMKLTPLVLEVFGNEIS

[2] = molecular target: T1, Vitamin D3 receptor (Homo sapiens); assay: Effect on Gal4 DBD-hVDRdelta LBD construct transactivation in COS7 cells at 10(-5) M; format: functional, cell-based; conditions: COS-7

Activity [1] [%] | Activity [2] [%] | Structure (SMILES)
20 | 100 | C=C1/C(=C\C=C2/CC[C@@H](CCCCCCC(C)(C)O)[C@]3(C)CCC[C@@H]23)C[C@@H](O)C[C@@H]1O
6 | – | C=C1/C(=C\C=C2/CC[C@@H](CCCCCCCC(C)(C)O)[C@]3(C)CCC[C@@H]23)C[C@@H](O)C[C@@H]1O
8 | – | C=C1/C(=C\C=C2/CC[C@@H](CCCCCC(C)(C)O)[C@]3(C)CCC[C@@H]23)C[C@@H](O)C[C@@H]1O

— ChEMBL document CHEMBL1138175, “Novel 1alpha,25-dihydroxyvitamin D3 analogues with the side chain at C12” (J Med Chem, 2006)
